Literature values in paper PMC9610999, “Itraconazole-Induced Increases in Gilteritinib Exposure Are Mediated by CYP3A and OATP1B” (Molecules, 2022).

Parameters: method as in PMID 32546970
Conditions: rats; cited from earlier work

Compound: CCc1nc(C(N)=O)c(Nc2ccc(N3CCC(N4CCN(C)CC4)CC3)c(OC)c2)nc1NC1CCOCC1 [Gilteritinib]
- Increase in gilteritinib exposure by itraconazole: 1.4 fold
